Experimental data as given in ChEMBL document CHEMBL1150575, “Microbial transformation of hypoestenone” (2001).
In brackets after ≈: the same amount, converted by molar mass.

Key:
Assay type in all cases: functional
Pseudomonas aeruginosa = assay: Antimicrobial activity against Pseudomonas aeruginosa by microtiter-plate assay
Cryptococcus neoformans = assay: Antimicrobial activity against Cryptococcus neoformans by microtiter-plate assay
Plasmodium falciparum = assay: Antiparasitic activity against Plasmodium falciparum W2

Row | MIC (Pseudomonas aeruginosa) | MIC (Cryptococcus neoformans) | MIC (Plasmodium falciparum) | SMILES
1 | 45 mg/L (≈ 150 µM) | 20 mg/L (≈ 66.6 µM) | 2.8 mg/L (≈ 9.32 µM) | CC1=C2C[C@]3(C)C(=O)C[C@@H](C(C)C)[C@H]3C/C=C(/C)[C@@H]2CC1=O [HYPOESTENONE]
2 |  | 50 mg/L (≈ 158 µM) |  | CC1=C2C[C@]3(C)C(=O)C[C@@H](C(C)C)[C@H]3C[C@H]3O[C@@]3(C)[C@@H]2CC1=O
